How the values were obtained:
MR [1] = molecular target: T1, MR (Rattus norvegicus, UniProt P22199); assay: NGAL expression in dendritic cells incubated with aldo +/- spironolactone; type: cell-based; details: 24 hr
T1 construct: endogenous in cells; host or cells: dendritic cells differentiated with GM-CSF from bone marrow stem cells of male SD rats
T1 sequence (P22199 1-981): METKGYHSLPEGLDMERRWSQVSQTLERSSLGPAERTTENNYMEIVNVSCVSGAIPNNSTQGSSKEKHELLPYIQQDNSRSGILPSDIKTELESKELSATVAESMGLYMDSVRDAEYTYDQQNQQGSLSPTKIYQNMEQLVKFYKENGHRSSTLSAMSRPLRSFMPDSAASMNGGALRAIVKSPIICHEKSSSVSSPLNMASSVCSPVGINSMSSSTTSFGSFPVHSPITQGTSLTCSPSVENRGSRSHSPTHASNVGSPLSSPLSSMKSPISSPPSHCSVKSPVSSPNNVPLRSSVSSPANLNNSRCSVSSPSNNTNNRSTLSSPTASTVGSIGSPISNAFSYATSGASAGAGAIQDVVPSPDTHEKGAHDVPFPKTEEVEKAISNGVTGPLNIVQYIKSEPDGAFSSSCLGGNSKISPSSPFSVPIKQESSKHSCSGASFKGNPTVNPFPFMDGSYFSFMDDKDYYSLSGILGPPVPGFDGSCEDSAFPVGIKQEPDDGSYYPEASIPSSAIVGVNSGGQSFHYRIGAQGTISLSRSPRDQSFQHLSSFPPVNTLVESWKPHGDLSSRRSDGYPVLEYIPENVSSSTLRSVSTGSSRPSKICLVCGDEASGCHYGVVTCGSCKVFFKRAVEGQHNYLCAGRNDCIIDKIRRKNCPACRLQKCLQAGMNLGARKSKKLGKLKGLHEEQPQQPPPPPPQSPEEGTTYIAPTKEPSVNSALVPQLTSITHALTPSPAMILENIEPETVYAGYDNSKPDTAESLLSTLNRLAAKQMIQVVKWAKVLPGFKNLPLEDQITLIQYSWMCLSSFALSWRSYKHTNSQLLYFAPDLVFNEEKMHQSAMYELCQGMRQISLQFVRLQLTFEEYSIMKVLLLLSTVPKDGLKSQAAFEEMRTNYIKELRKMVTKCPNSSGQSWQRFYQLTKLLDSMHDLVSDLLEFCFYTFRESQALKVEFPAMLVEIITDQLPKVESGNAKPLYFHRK
Experimental: (§1) FIG. 3. NGAL is an aldo/MR target in DCs (A) and macrophages (B). A:DCs were obtained from male SD rat bone marrow stem cells and differentiated during 6 days with GM-CSF. DCs were incubated with aldo (10 nM), spironolactone (5 μM), aldo plus spironolactone, or vehicle for 24 hr. *p<0.05 by ANOVA analysis (n=4); B: peritoneal macrophages from WT mice were stimulated or not with aldo (10 nM+/−RU28318 (MR antagonist). NGAL behaves similarly as MCP1 (monocy chemoattractant protein).
(§2) Macrophages are purified from abdominal cavity from mice, after 4 days of inflammation induced by thioglycollate injection. Dendritic cells are obtained after 7 days of incubation of bone marrow precursors cells (from mice bone marrow) with GM-CSF (granulocyte macrophage colony-stimulating factor).

MR [2] = molecular target: T2, MR (Mus musculus, UniProt Q8VII8); assay: NGAL expression in peritoneal macrophages stimulated with aldo; type: cell-based; details: aldo 10 nM; peritoneal macrophages from WT mice
T2 construct: Macrophages are purified from abdominal cavity from mice; endogenous in cells; host or cells: thioglycollate-elicited peritoneal macrophages from WT mice
T2 sequence (Q8VII8 1-978): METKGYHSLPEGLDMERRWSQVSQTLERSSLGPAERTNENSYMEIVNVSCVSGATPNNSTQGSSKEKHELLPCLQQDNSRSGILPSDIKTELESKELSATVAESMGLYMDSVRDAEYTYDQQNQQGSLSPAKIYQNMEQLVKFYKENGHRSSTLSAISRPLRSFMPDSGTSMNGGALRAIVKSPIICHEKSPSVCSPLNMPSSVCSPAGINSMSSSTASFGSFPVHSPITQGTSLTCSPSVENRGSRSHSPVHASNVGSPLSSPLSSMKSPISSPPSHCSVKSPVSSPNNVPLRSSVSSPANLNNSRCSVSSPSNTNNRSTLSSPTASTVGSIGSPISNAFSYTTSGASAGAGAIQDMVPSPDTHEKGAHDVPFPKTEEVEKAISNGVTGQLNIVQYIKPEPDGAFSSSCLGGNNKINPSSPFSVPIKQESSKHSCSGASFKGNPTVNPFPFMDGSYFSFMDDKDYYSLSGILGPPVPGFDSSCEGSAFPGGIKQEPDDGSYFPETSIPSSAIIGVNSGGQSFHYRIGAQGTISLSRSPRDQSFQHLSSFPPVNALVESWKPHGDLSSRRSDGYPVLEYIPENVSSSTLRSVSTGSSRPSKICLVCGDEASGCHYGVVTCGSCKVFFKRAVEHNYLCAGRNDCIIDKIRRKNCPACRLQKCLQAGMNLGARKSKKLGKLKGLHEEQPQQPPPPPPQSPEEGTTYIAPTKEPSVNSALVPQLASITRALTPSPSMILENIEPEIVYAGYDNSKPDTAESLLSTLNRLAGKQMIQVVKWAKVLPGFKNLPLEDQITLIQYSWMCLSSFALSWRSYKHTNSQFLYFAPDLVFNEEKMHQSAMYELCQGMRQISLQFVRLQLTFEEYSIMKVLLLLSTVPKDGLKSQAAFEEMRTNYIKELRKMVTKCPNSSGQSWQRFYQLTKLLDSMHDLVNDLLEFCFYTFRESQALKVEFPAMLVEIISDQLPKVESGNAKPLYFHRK
Experimental: as §1, §2

In the case of C[C@]12CCC(=O)C=C1CC[C@@H]1[C@@H]2[C@@H](O)C[C@]2(C=O)[C@@H](C(=O)CO)CC[C@@H]12 [aldo, Aldosterone], the “NGAL expression in dendritic cells” value (MR [1]; aldo 10 nM) is reported as “upregulated” and the “NGAL expression in macrophages” value (MR [2]) is reported as “aldo/MR target gene in the macrophages”.

In the case of CC(=O)S[C@@H]1CC2=CC(=O)CC[C@]2(C)[C@H]2CC[C@@]3(C)[C@@H](CC[C@@]34CCC(=O)O4)[C@H]12 [spironolactone], the “aldo-induced NGAL upregulation in dendritic cells” value (MR [1]; spironolactone 5 μM plus aldo 10 nM) is reported as “blocked”.
